Measured values reported in patent US9622495B2, “Methods to decontaminate cereal grains with chlorine dioxide” (Diversey, Inc., priority 2011, dated 2017).
“And” between values parts separate entries of the source, which are not always exact repeats. Equal entries are not always repeated.

What was measured:
Fusarium [1] = assay: Treatment of barley artificially contaminated with Fusarium with chlorine dioxide solutions (test tube, plate count); format: cell-based
Procedure: The performance of chlorine dioxide was investigated to reduce initial Fusarium load on barley. Prior to treatment with chlorine dioxide, barley samples were artificially contaminated with cells of Fusarium by spraying and drying.
Methods. Chlorine dioxide solutions were generated using Diversey's ClearKlens Bi-Spore Set (Base VH26 and Activator VH 26). Fresh stock solutions were prepared following product use instructions. Concentrations of chlorine dioxide in stock and use solutions were determined with a Dr. Lange test-kit (LCK 310/343) and photometric DR 2800 device. Chlorine dioxide use solutions were prepared diluting the Bi-Spore stock solution with aid of CEN hard water diluent (300 mg/kg CaCO3). The neutralizing solution was based on sodium thiosulfate (5 g/L in ¼ strength Ringer solution). Experiments were carried out at ambient temperature and no soil on the basis of EN 1276. Chlorine dioxide use solutions for testing were determined to be 1 ppm and 10 ppm.
Test runs were conducted as follows. In a test tube, chlorine dioxide solution (10 ml) was added to barley (1 g) and the start time of the experiment was recorded. Barley and chlorine dioxide were mixed by vortexing for 10 seconds and then allowed to react for one hour. After treating the barley with chlorine dioxide solution for one hour, the solution was decanted. Shortly thereafter, a subsequent treatment for either 60 or 300 min with a fresh solution containing either 1 ppm ClO2 or 10 ppm ClO2 was performed. After completion of the second treatment, a portion of the mixture (1 mL) was pipetted into 9 ml of neutralizer and mixed. After 5 minutes reaction time, 1 mL of the neutralized solution was added to 9 mL Ringer diluent. A dilution series was prepared up to 1:10,000. From each dilution step, 1 mL (in duplicate) was plated on potato dextrose agar. Plates were incubated at 30° C. for 62 hours. Grown colonies on plates were counted and expressed at CFU per gram barley. A control experiment using Ringer solution instead of chlorine dioxide was performed following the same procedure.

Fusarium [2] = assay: Fusarium counts on barley, chlorine dioxide in second steeping, pilot steeping chamber (Example 2); format: cell-based
Procedure: (§1) Test protocol. Harvested barley from a high load Fusarium batch was provided by Czech Malt and Brew Institute. A starting probe (parallel) was taken to determine initial cell load on barley with Fusarium. Barley (1 g) was whirled in Ringer-solution (10 ml) to detach cells. After thorough whirling ten-fold dilutions steps in sterile Ringer-solution were prepared. 1 ml sample in parallel from dilution steps 10^−4, 10^−5 and 10^−6 were poured with sterile potato agar medium. Chlorine dioxide treated barley was prior to dilution series once washed with Ringer-solution to remove residual Chlorine dioxide. Plates were transferred into a temperature-controlled (30° C.) incubation box and grown for 3-5 days until colony formation was observed. Colonies were counted and calculated to CFU/g. Boxes with barley were placed into a steeping/germination box. The chamber was filled with town tap water for the first steeping and to remove dust and dirt. With help of Dulcotest DT1 photometer (Prominent), the free chlorine in tap water was determined to be 0.17 ppm. The first steeping was performed for 5 hours at about 14.5° C. During this time the water content in exposed barley increased up to 31.8%. After the first steeping residual water was drained. A second (parallel) barley sample was taken to determine the Fusarium load. The steeped barley was then exposed to air until next morning (approximately 16 hours), and a third (parallel) barley sample was taken to determine Fusarium load.
(§2) The second steeping was performed using an aqueous solution of chlorine dioxide. The aqueous solution was made of Diversey Bi-Spore as described in Example 1. The chlorine dioxide steeping solution was prepared from stock by diluting with town tap water. The chlorine dioxide concentration of the steeping solution was determined to be 12 ppm.
(§3) Four boxes with 0.5 kg barley each were placed into a plastic container, which then was filled with 11 L of above mentioned chlorine dioxide steeping solution. The plastic container was transferred into the steeping/germination chamber and left for another 4 hour steeping period. The chlorine dioxide concentration was periodically monitored using Dr. Lange test-kits (LCK 310/343) and DR 2800 device. (Parallel) Barley samples were taken to determine residual cell load of Fusarium after the chlorine dioxide steeping.
After second steeping with chlorine dioxide, the boxes were exposed to air in the closed chamber for another 20 hour period. The water level was determined to 38.1% and then adjusted to final 45.5% after a third steeping with tap water for a period of 2.5 hours. A final parallel barley sample was taken to determine residual cell load with Fusarium prior to germination. Treated barley then was further processed according to a quality parameter protocol of the Malting Institute.

[3] = Chlorine dioxide concentration in the steeping solution during steeping; format: physicochemical; conditions: for ClO2 concentration in the steeping solution: Example 2, second steeping
Procedure: as §2, §3
(§4) A comparison test with a batch of barley treated with chlorine dioxide in second steeping versus a control using tap water only was carried out following the procedure described in Example 2. The chlorine dioxide in the second steeping solution was determined as initial 11 ppm and dropped to 8 ppm at the end of steeping (4 hour in total, data not shown). The effect on reduction of Fusarium counts were determined.

Fusarium [4] = assay: Fusarium counts on barley, chlorine dioxide in second steeping versus tap water blank (Example 3); format: cell-based
Procedure: as §1, §4

[5] = test system: Fusarium mycotoxins (deoxynivalenol, zearalenon) and deoxynivalenol-3-glucoside; assay: Mycotoxin content of barley by LC-MS/MS
Procedure: The barley was also analyzed for representative mycotoxin content as follows. The high-performance liquid chromatography with mass detection (LC-MS/MS) was used for the determination of the selected Fusarium mycotoxins (deoxynivalenol, zearalenon) and deoxynivalenol-3-glucoside in brewing raw materials. After extraction, the homogenized samples were filtered and purified on the SPE column or immunoaffinity column. Subsequently, they were concentrated using a vacuum evaporator, transferred to aqueous methanol and analyzed with the LC-MS/MS.

Fusarium [6] = assay: Industrial-scale treatment of barley with chlorine dioxide (about 10 ppm) in second steeping, Fusarium counts; format: cell-based; conditions: in words
Procedure: Two independent comparison tests with batches of barley treated with chlorine dioxide in a second steeping, versus control steepings using tap water only, were carried out at industrial scale at an industrial malting site following the procedure described in Example 2. Each batch included about 56 m^3 of barley, the ratio of aqueous chlorine dioxide to barley was about 1:1, and chlorine dioxide (about 10 ppm) was added during second steeping. There was no further dosage of ClO2 during the subsequent germination phase. The effect on reduction of Fusarium counts at industrial-scale were determined at distinct phases: after a first air break, after the second steeping, and during the green malt stage (after barley germination).

Fusarium [7] = assay: Industrial-scale spraying of barley with aqueous chlorine dioxide (20 ppm) during germination, Fusarium counts; format: cell-based; conditions: for Log N Fusarium counts: sprayed with aqueous ClO2 (20 ppm) during germination, samples 11B, 12B
Procedure: Comparison tests were conducted with two batches of barley at the same industrial malting site of Example 5, to determine the effect of ClO2 upon Fusarium counts where the barley is sprayed with aqueous ClO2 (20 ppm) during germination. Both batches were treated with tap water during the steeping stage. Batches 11A and 12A were also sprayed with tap water during germination, whereas batches 11B and 12B were sprayed with aqueous ClO2 (20 ppm) during germination. Each batch of barley weighed approximately 56 metric tons when dry and absorbed approximately 40-50% water by weight during the steeping and germination steps. For example, the barley typically absorbed about 41-42% water during steeping. During germination water content in the barley further increased to about 45-46%. During germination, the steeped batch of barley was sprayed with about 8.8 m^3 aqueous chlorine dioxide (20 ppm) solution (i.e., about 0.15 m^3 aqueous chlorine dioxide solution per metric ton of dry grain).

Fusarium [8] = assay: Fusarium counts on barley, chlorine dioxide in second steeping, pilot steeping chamber (Example 2); format: cell-based; remark: listed apart in the source
[9] = 10 ppm + 1 ppm ClO2, contact time 60 min + 60 min
[10] = 10 ppm + 1 ppm ClO2, contact time 60 min + 300 min
[11] = 10 ppm + 10 ppm (2nd steep) ClO2, contact time 60 min + 60 min
[12] = 10 ppm + 10 ppm (2nd steep) ClO2, contact time 60 min + 300 min
[13] = ClO2-treated batch, after third steeping with tap water
[14] = ClO2-treated batch, after third steeping with tap water, second sample
[15] = after second steeping with ClO2 (4 hours), 12 ppm
[16] = after second steeping with ClO2 (4 hours), 12 ppm, second sample
[17] = second steeping step with chlorine dioxide
[18] = after 2nd steeping with ClO2 (4 hours)
[19] = Bojos barley after steeping with chlorine dioxide

In the case of `[O][Cl+][O-]` [ClO2, chlorine dioxide], the CFU/g after treatment (Fusarium [1]; [9]) is reported as 3.3 × 10^6 CFU/g, the “R (log batch control − log batch ClO2), reduction in viability” value (Fusarium [1]; [9]) is reported as 1.06 and the CFU/g after treatment (Fusarium [1]; [10]) is reported as 1.3 × 10^7 CFU/g. For the same compound, the “R (log batch control − log batch ClO2), reduction in viability” value (Fusarium [1]; [10]) was 0.47, the CFU/g after treatment (Fusarium [1]; [11]) was 1.1 × 10^4 CFU/g and the “R (log batch control − log batch ClO2), reduction in viability” value (Fusarium [1]; [11]) was 3.58. For the same compound, the CFU/g after treatment (Fusarium [1]; [12]) was 5 × 10^3 CFU/g, the “R (log batch control − log batch ClO2), reduction in viability” value (Fusarium [1]; [12]) was 3.88 and the “Fusarium counts on barley compared to a control without chlorine dioxide” value (Fusarium [1]; Example 1, in words) was “clear reduction”. For the same compound, the “Fusarium counts, Mean value (CFU/g)” value (Fusarium [2]; [13]) was 2.47 × 10^5 CFU/g, the “Fusarium counts, Sample 1 (CFU/g)” value (Fusarium [2]; [13]) was 2.47 × 10^5 CFU/g and the “Fusarium counts, Sample 1 (CFU/g)” value (Fusarium [2]; [14]) was 2.47 × 10^5 CFU/g. The “Fusarium counts, Mean value (CFU/g)” value (Fusarium [2]; [15]) was 5.16 × 10^4 CFU/g, the “Fusarium counts, Sample 1 (CFU/g)” value (Fusarium [2]; [15]) was 5.23 × 10^4 CFU/g and the “Fusarium counts, Sample 1 (CFU/g)” value (Fusarium [2]; [16]) was 5.09 × 10^4 CFU/g. For the same compound, the “Fusarium in malted barley produced from the treated batch” value (Fusarium [2]; malted barley, data not shown) was “free from Fusarium”, the “Reduction of Fusarium numbers on barley (%)” value (Fusarium [2]; [17]) was 94.15% and the “Reduction of Fusarium numbers on barley (log)” value (Fusarium [2]; [17]) was 1.24 log. The “ClO2 concentration in the steeping solution” value (“ClO2 concentration” for short) ([3]; time 0 min) was 12.2 mg/L, the “ClO2 concentration” value ([3]; time 80 min) was 11.8 mg/L and the “ClO2 concentration” value ([3]; time 140 min) was 7.4 mg/L. For the same compound, the “ClO2 concentration” value ([3]; time 190 min) was 9.5 mg/L, the “ClO2 concentration” value ([3]; time 240 min) was 6.4 mg/L and the “Chlorine dioxide in the second steeping solution, end of steeping” value ([3]; Example 3, end of steeping (4 hour in total)) was 8 ppm. For the same compound, the “Chlorine dioxide in the second steeping solution, initial” value ([3]; Example 3, start of steeping) was 11 ppm, the “% reduction vs. untreated control” value (Fusarium [4]; after 2nd aeration (20 hours)) was 93.09% and the “Fusarium counts, treated with ClO2, mean value (CFU/g)” value (Fusarium [4]; after 2nd aeration (20 hours)) was 4.41 × 10^3 CFU/g. For the same compound, the “Fusarium counts, treated with ClO2, sample 1 (CFU/g)” value (Fusarium [4]; after 2nd aeration (20 hours)) was 4.69 × 10^3 CFU/g, the “Fusarium counts, treated with ClO2, sample 2 (CFU/g)” value (“Fusarium counts … sample 2 (CFU/g)” for short) (Fusarium [4]; after 2nd aeration (20 hours)) was 4.13 × 10^3 CFU/g and the “log reduction vs. untreated control” value (Fusarium [4]; after 2nd aeration (20 hours)) was 1.17. For the same compound, the “% reduction vs. untreated control” value (Fusarium [4]; [18]) was 93.44%, the “Fusarium counts, treated with ClO2, mean value (CFU/g)” value (Fusarium [4]; [18]) was 4.56 × 10^3 CFU/g and the “Fusarium counts, treated with ClO2, sample 1 (CFU/g)” value (Fusarium [4]; [18]) was 4.37 × 10^3 CFU/g. The “Fusarium counts … sample 2 (CFU/g)” value (Fusarium [4]; [18]) was 4.75 × 10^3 CFU/g, the “log reduction vs. untreated control” value (Fusarium [4]; [18]) was 1.18 and the “% reduction vs. untreated control” value (Fusarium [4]; after 3rd steeping) was 92.59%. For the same compound, the “Fusarium counts, treated with ClO2, mean value (CFU/g)” value (Fusarium [4]; after 3rd steeping) was 3.14 × 10^3 CFU/g, the “Fusarium counts, treated with ClO2, sample 1 (CFU/g)” value (Fusarium [4]; after 3rd steeping) was 3.12 × 10^3 CFU/g and the “Fusarium counts … sample 2 (CFU/g)” value (Fusarium [4]; after 3rd steeping) was 3.15 × 10^3 CFU/g. For the same compound, the “log reduction vs. untreated control” value (Fusarium [4]; after 3rd steeping) was 1.13, the “Fusarium counts compared to the control steeped with tap water only” value (Fusarium [4]; chlorine dioxide in second steeping, in words) was “significantly lower” and the “DON concentration on barley” value [5, 19] was 450.4 µg/kg. The “DON_3_Glc concentration on barley” value [5, 19] was 751 µg/kg, the “ZON concentration on barley” value [5, 19] was 12.1 µg/kg and the DON ([5]; Bojos barley steeped with chlorine dioxide, Table 7) was 450.4 µg/kg. The “Mycotoxin concentration of DON and DON_3_Glc on barley compared to initial load of untreated barley or barley steeped with water only” value ([5]; in words) was “significantly lower”, the “ZON level compared to tap water only” value ([5]; in words) was “significantly less” and the “Level of ZON after steeping compared to initial load” value ([5]; in words, independently of whether water or chlorine dioxide was used) was “increased”. For the same compound, the “Fusarium counts compared to control batches steeped with tap water” value (Fusarium [6]) was “significantly lower”, the “Fusarium counts on barley compared to control batch sprayed with tap water” value (Fusarium [7]; industrial scale, sprayed during germination, in words) was “significantly lower” and the “Log N Fusarium counts” value (Fusarium [7]; Day 1) was 5.9 and 5.8. For the same compound, the “Log N Fusarium counts” value (Fusarium [7]; Day 2) was 5.2, the “Log N Fusarium counts” value (Fusarium [7]; Day 3) was 5.2 and the “Log N Fusarium counts” value (Fusarium [7]; Day 4) was 4.3. The “Log N Fusarium counts” value (Fusarium [7]; Day 5) was 4.1 and 4.0, the “Fusarium counts, Mean value (CFU/grain)” value (Fusarium [8]; [13]) was 1.98 × 10^4 CFU/grain and the “Fusarium counts, Sample 1 (CFU/grain)” value (Fusarium [8]; [13]) was 1.90 × 10^4 CFU/grain. For the same compound, the “Fusarium counts, Sample 1 (CFU/grain)” value (Fusarium [8]; [14]) was 2.06 × 10^4 CFU/grain, the “Fusarium counts, Mean value (CFU/grain)” value (Fusarium [8]; [15]) was 3.69 × 10^3 CFU/grain and the “Fusarium counts, Sample 1 (CFU/grain)” value (Fusarium [8]; [15]) was 3.74 × 10^3 CFU/grain. For the same compound, the “Fusarium counts, Sample 1 (CFU/grain)” value (Fusarium [8]; [16]) was 3.64 × 10^3 CFU/grain.
